This is an account of results in patent US7153883B2, “Carboxylic acids and carboxylic acid isosteres of N-heterocyclic compounds” (GPI NIL Holdings Inc., priority 1998, dated 2006).

Data set [1] relates to retinal ganglion cell axons. Nature of the data set: Protection of retinal ganglion cell axons 14 days after optic nerve transection (RT97). It counts as in vivo, Sprague Dawley rats. The following applies: ± SEM. The text has this: Efficacy of representative compounds from different immunophilin ligand series in protecting retinal ganglion cell axons from degeneration following optic nerve transection is set forth in Table VI.

Another data set in a line: Clearance. Format: in vitro ADME.
Another data set concerns dopaminergic neurons. Nature of the data set: MPTP model of Parkinson's Disease in mice (TH immunostaining). The note with it: Mus musculus, Neuron, po; 10 mg/kg p.o.; MPTP-lesioned mice; read-out: Post-MPTP % TH RECOVERY
It counts as in vivo, CD1 white mice. The procedure: MPTP lesioning of dopaminergic neurons in mice was used as an animal model of Parkinson's Disease. Four week old male CD1 white mice were dosed i.p. with 30 mg/kg of MPTP for 5 days. […] At 18 days following MPTP treatment, the animals were sacrificed and the striata were dissected and homogenized. Immunostaining was performed on saggital and coronal brain sections using anti-tyrosine hydroxylase Ig to quantitate survival and recovery of dopaminergic neurons. In animals treated with MPTP and vehicle, a substantial loss of functional dopaminergic terminals was observed as compared to non-lesioned animals. In another protocol, test compounds were administered only subsequent to MPTP-induced lesioning. Thus, after animals were treated with MPTP for 5 days, an additional 3 days passed before beginning oral drug treatment on day 8. […] On day 18, the animals were sacrificed and analyzed as described above.
Table V presents the percent recovery of dopaminergic neurons in the first (concurrent dosing) paradigm in animals receiving carboxylic acid or carboxylic acid isostere compounds of the present invention.
Percent striatal innervation density was quantitated in brain sections with an anti-tyrosine hydroxylase immunoglobulin, which is indicative of functional dopaminergic neurons. The striatal innervation density of 23% for animals pretreated with only a vehicle and administered a vehicle orally during treatment, is indicative of normal non-lesioned striatal tissue. Striatal innervation density is reduced to 5% for animals pretreated with MPTP and administered a vehicle orally during treatment, and is indicative of MPTP-induced lesioning.

For `O=C(SCCCc1ccccc1)[C@@H]1CCCN1S(=O)(=O)Cc1ccccc1` [C], the “RT97 + RGC axon density 14 days after ON transection (% ON axons rescued)” value in data set [1] is on record as 60.4%±3.1%SEM. The Clearance in the data set “Clearance” was 31.1 µL/min.
As to `CCC(C)(C)C(=O)C(=O)N1CCC[C@H]1CO` [Compound 26, (2S)-1-(1,2-dioxo-3,3-dimethylpentyl)-2-hydroxymethyl pyrrolidine], in the data set with dopaminergic neurons, the percent TH recovery after MPTP at 10 mg/kg was determined as 23.2%.
For orientation: melting point means the temperature of the solid-liquid transition. In turn, `CCC(C)(C)C(=O)C(=O)N1CCC[C@H]1CC#N` [Compound 28, 2-[1-(3,3-Dimethyl-2-oxopentanoyl)pyrrolidin-2-yl]ethanenitrile] gave a melting point of 91 to 93 °C. In the data set with dopaminergic neurons, the percent TH recovery after MPTP at 10 mg/kg was 15.7%.
Regarding `CCC(C)(C)C(=O)C(=O)N1CCC[C@H]1C#N` [Compound 29, (2S)-1-(1,2-dioxo-3,3-dimethylpentyl)-2-pyrrolidinecarbonitrile], in the data set on dopaminergic neurons, the percent TH recovery after MPTP at 10 mg/kg stood at 34.1%.
On the same count and under the same terms, next, `CCC(C)(C)C(=O)C(=O)N1CCC[C@H]1c1nnn[nH]1` [Compound 30, (2S)-1-(1,2-dioxo-3,3-dimethylpentyl)-2-pyrrolidinetetrazole]: 19.6%.
`CCC(C)(C)C(=O)C(=O)N1CCC[C@H]1C(=O)NNC(=O)c1cccs1` [Compound 140, [1-(3,3-Dimethyl-2-oxopentanoyl)pyrrolidin-2-yl]-N-(2-thienylcarbonylamino)-formamide]: the melting point was 72 to 74 °C. For the same compound, in the data set with dopaminergic neurons, the percent TH recovery after MPTP at 10 mg/kg stood at 10.4%.
`CCC(C)(C)C(=O)C(=O)N1CCC[C@H]1COc1ccc([N+](=O)[O-])cc1` [Compound 141, 3,3-Dimethyl-1-{2-[(4-nitrophenoxy)methyl]pyrrolidinyl}pentane-1,2-dione]: in the data set on dopaminergic neurons, the percent TH recovery after MPTP at 10 mg/kg is 26.3%.
`CCC(C)(C)C(=O)C(=O)N1CCC[C@H]1C(=O)NNS(=O)(=O)c1ccc(C)cc1` [Compound 146, [1-(3,3-Dimethyl-2-oxopentanoyl)pyrrolidin-2-yl]-N-{[(4-methylphenyl)sulfonyl]-amino}formamide] returned a melting point of 59 to 61 °C. Besides, in the data set on dopaminergic neurons, the percent TH recovery after MPTP at 10 mg/kg was 40.6%.
As for `CCC(C)(C)C(=O)C(=O)N1CCC[C@H]1C(=O)NNS(=O)(=O)c1ccc(F)cc1` [Compound 147], the melting point is 57 to 60 °C.
`CCC(C)(C)C(=O)C(=O)N1CCC[C@H]1c1nnc(S)[nH]1` [Compound 148, (2S)-3,3-Dimethyl-1-[2-(5-sulfanyl(4H-1,2,4-triazol-3-yl))pyrrolidinyl]-pentane-1,2-dione]: the percent TH recovery after MPTP at 10 mg/kg in the data set on dopaminergic neurons amounted to 21.4%.
Regarding `CCC(C)(C)C(=O)C(=O)N1CCCCC1C(=O)OC(CCc1ccccc1)CCc1ccccc1` (centres unmarked) [E], in the data set “Clearance”, the Clearance came out at 41.8 µL/min.
Regarding `O=C(OCCCc1cccnc1)[C@@H]1CCCN1C(=S)NC1CCCCC1` [I], the Clearance in the data set “Clearance” stood at 8.0 µL/min.
Still for that read-out and setting: next, `CCC(C)(C)C(=O)C(=O)N1CCC[C@H]1C(=O)CCCCc1cccnc1` [J]: 1.5 µL/min; `CCC(C)(C)C(=O)C(=O)N1CCCC[C@H]1C(=O)SCCC(c1ccccc1)c1ccccc1` [K]: 4.5 µL/min.
In the case of `CCC(C)(C)C(=O)C(=O)N1CCC[C@H]1C(=O)O` [L], the “RT97 + RGC axon density 14 days after ON transection (% ON axons rescued)” value in data set [1] is on record as 7.8%±3.0%SEM. Also, the Clearance in the data set “Clearance” is 5.2 µL/min.
On the same counts, the results for `CCC(C)(C)C(=O)C(=O)N1CCC[C@H]1C(=O)SCCC(c1ccccc1)c1ccccc1` [M] are −6.3%±3.9%SEM and 12.5 µL/min.
`CN(C)C(=O)N1CCC[C@H]1C(=O)SCCCc1ccccc1` [N] yielded a Clearance in the data set “Clearance” of 21.9 µL/min.
